Results as given in patent publication US11974988B2, “Neuroprotective compositions and methods of using the same” (The Board of Supervisors of Louisiana State Univer …, priority 2018, dated 2024).
Entries after “also recorded” stand apart in the source; their conditions may differ.

Columns and labels:
[1] = tested on: hippocampal neurons of KA-treated rats; assay: KA-induced status epilepticus model, hippocampal neurodegeneration (fluoro-jade B, NeuN); format: in vivo, rat; details: rat, in vivo
Source text: (§1) In Aim 3, we treat male and female rats with the ‘best’ SKA-41 derivatives before and after injection of kainic acid (KA). The KA-induced status epilepticus (SE) model is a well-validated model of temporal lobe epilepsy (TLE), the major form of human epilepsy. The model allows studying the different stages between SE and the development of TLE including SE, the acute and latent stages of epileptogenesis and chronic epilepsy. The excitotoxin KA causes excessive Glu release in the hippocampus and selective destruction of inhibitory SOM interneurons in the hilus region of the dentate gyrus (DG) and loss of pyramidal neurons in the CA3 (esp), and also CA1 regions. We scaled up synthesis of SKA-41, 219, and SKA-378. The identity of the compounds was confirmed by ^1H- and ^13C-NMR and high-resolution mass spectrometry. Compound purity is determined by HPLC and no compounds with less then 98% purity were used. […] Rats were processed for immunohistochemistry 3 days after KA administration. As expected, we find that KA treatment induces significant neural damage (green cells) in the CA3 pyramidal neuron subfield and in neurons in the hilus (FIG. 20 Panel A), which are SOM containing GABAergic interneurons (not shown). Fluoro jade B is a high affinity fluorescent marker used for the localization of neuronal degeneration. […] In studies, we have also administered SKA-378 (30 mg/kg) one hr after the onset of stage IV seizures (SE), followed by another injection at 4 hr post SE and then once each day for 3 days. We find that SKA-378 is also neuroprotective under these conditions.
as §1, with “with” for “with the ‘best’”, “(esp)” for “(esp),”, “were” for “was”, “We” for “As expected, we”, “23” for “20”, “Fluoro-jade” for “Fluoro jade”

[2] = tested on: organotypic hippocampal slice cultures; assay: Oxygen-glucose deprivation (OGD) in organotypic hippocampal slice cultures, propidium iodide staining; format: cell-based, rat; details: 20 min OGD, PI 24 h later; SKA-41 30 μM, MK-801 20 μM, riluzole 30 μM, NBQX 10 μM/AP5 50 μM
Description: OGD is an in vitro model for transient cerebral ischemia. In preliminary studies, we prepared hippocampal slice cultures from P7-8 rat pups. Experiments were performed at 14 DIV, when presynaptic Glu function is maximal and synapse formation and NMDAR subunit expression have reached a developmental stage sufficient to sensitize the slice to excitotoxic injury. Propidium iodide (PI), which binds to DNA in a nonspecific manner by penetrating damaged phospholipoid bilayers, was used to assess neural injury 24 h after OGD. […] SKA-41 was present 30 min prior to OGD, during OGD and during the 24 h recovery period.

## Nc1nc(-c2ccc(OC(F)(F)F)cc2)cs1 [SKA-41, 4-(4-(Trifluoromethoxy)phenyl)thiazol-2-amine]
[1]
  neuroprotection against Glu-induced excitotoxicity in the KA model of TLE: neuroprotective
[2]
  OGD-induced neural injury (PI staining): completely prevents PI staining; also recorded: prevents OGD-induced neural injury
